Melting point data for 90 compounds are collected here from a melting point compilation (Tetko et al.; mined from patent text by program, amines drawn as free bases though some values may be those of a salt).

For orientation: melting point means the temperature of the solid-liquid transition.

`CSC[C@H](C)NC(=O)c1c(I)cccc1C(=O)O` yielded a melting point of 132 to 134 °C. The compound `CCc1nc2c(cnn2CC)c(NC2CCOCC2)c1CNC(=O)c1cccc(C(=O)NCc2ccc(F)c(-c3cccc(CN4CCN(CC)CC4)c3)c2)c1` gave a melting point of 155 to 158 °C. Compound `C[C@H]1CCCC(C)(C)[C@@H]1[C@H](O)c1ccc(C#N)c(C(F)(F)F)c1` had a melting point of 118 to 119 °C. In turn, `CCCSc1ncc(CC(NC(=O)CCC)C(=O)O)n1Cc1ccccc1Cl` (stereo not given) registered a melting point of 178 to 181 °C. `CC(C)OC(=O)Cc1ccc2c(c1)C(=O)c1sccc1CO2` displayed a melting point of 92 to 94 °C. `Brc1ccc(-c2ccc(-c3ccc(Br)s3)c3nsnc23)s1` registered a melting point of 247 to 248 °C. Then `Cc1ncsc1C(=O)Nc1ccc(-n2nc(C3CC3)cc2C2CC2)c(F)c1`, with 102 to 106 °C; and `COc1cccc(OC)c1-c1cc(C(=O)N[C@H](C(=O)O)C2CCCCC2)nn1-c1ccc(C(N)=O)c2ccccc12`, with 186 °C; and `Cn1nc(NC(=O)c2ccccc2)c2c(=O)n3c(nc21)SCC3`, with 271 to 272 °C.

`CN1CCN(CCCCNc2ncc3cc(-c4c(Cl)cccc4Cl)c(=O)n(C)c3n2)CC1` yielded a melting point of 130 to 132 °C. `COc1ccc2c(c1)CCC1CC(=O)NN=C21` (stereo not given) had a melting point of 198 °C. Compound `CC(=O)CC(=O)Nc1cccc(OCc2ccccc2)c1` had a melting point of 80 °C.

The compound `COC(=O)C(C#N)c1nc(-c2c(F)cccc2F)cs1` (stereo not given) had a melting point of 219 to 224 °C. For `CCOC(=O)c1cnc(Cl)c([N+](=O)[O-])c1NC`, the melting point lay in the range of 70 to 72 °C.

In turn, `CC(C)(C)OC(=O)C(=CC1C(C(=O)O)C1(C)C)OC(C)(C)C` (stereo not given) displayed a melting point of 85 °C. Then `CC1(C)COC(c2cc3c(O)cccc3o2)=N1`, with 187 to 188 °C; and `CCCCCc1nc2c(N)nc3ccccc3c2s1`, with 119 to 121 °C; and `CCn1c(N(C)C)nc2cc(C(F)(F)F)c(Cl)c(N)c21`, with 99 to 100 °C. `CC(C)(C)OC(=O)c1ccc([N+](=O)[O-])c(CBr)c1` returned a melting point of 61 to 65 °C.

Regarding `NOCC=Cc1ccc(Br)cc1`, the melting point was 35 to 38 °C.

The compound `CCNC1=CC(=O)c2c(OC)ccc(OC)c2C1=O` yielded a melting point of 172 to 173 °C. As for `CCOC(=O)CN(C)C(=O)c1ccccc1C(=O)c1cc(C(C)(C)C)c(O)c(C(C)(C)C)c1`, the melting point is 98 to 99 °C.

Compound `CCCCNS(=O)(=O)CC(=O)[C@@H]1OC(C)(C)N(C(=O)OC(C)(C)C)[C@H]1CC1CCCCC1` displayed a melting point of 70 to 73 °C. In turn, `CCc1cc(=O)c2c([nH]1)COCC2` gave a melting point of 216 to 218 °C. `CC(C)C1Cc2cc(OCC(=O)O)cc(Cl)c2C1=O` (stereo not given) gave a melting point of 126 to 128 °C. The result for `CCCNC(=O)c1cc2c(nc(C)n2C)c2c1CCC(c1ccccc1)O2` (stereo not given) reads 273 °C; that for `O=C1Nc2cccnc2N(C(=O)NCCN2CCC(CNCC3CCCCC3)C2)c2ccccc21` (stereo not given), 166 to 167 °C.

In turn, `Nc1cc(Cl)nc(S(=O)Cc2ccc3ccccc3c2)n1` (stereo not given) gave a melting point of 222 to 223 °C. The result for `O=C(O)c1ccc(OCC2CC(=O)N(c3ccc(OC4CCCC4O)cc3)C2)cc1` (stereo not given) reads 176 to 178 °C. Turning to `COC(=O)c1ccc(SC)c(-c2cc(C)no2)c1C`, the melting point fell in the range of 94 to 95 °C. On to `O=C(O)CCc1cc2cc(Cl)ccc2n1S(=O)(=O)c1ccccn1`, for which the melting point worked out at 189 °C. For the compound `CCOC(=O)Cc1cc(O)c(C)cc1O`, the melting point came out at 134 °C.

In the case of `O=C1c2cccc([N+](=O)[O-])c2C2CC3(CCN12)SCCS3` (stereo not given), the melting point came to 185 °C.

With `CN1CCN(Cc2cnc(S)n2Cc2cc(F)cc(F)c2)CC1`, the melting point was in the range of 200 to 201 °C.

For `O=C(Oc1nc(Cl)c(Cl)cc1Cl)C(Cl)(Cl)Cl`, the melting point lay within 58 to 60 °C. Regarding `Cc1ccc(N=C2NCCN2)c(Cl)c1Cl`, the melting point fell in the range of 158 to 162 °C. As for `O=C(CS)Nc1ccc(C(=O)NCCO)cc1`, the melting point fell in the range of 184 to 186 °C. For `O=c1[nH]c2cc(Br)c3c(c2[nH]c1=O)CN(Cc1ccccc1)CC3`, the melting point was in the range of 297 to 302 °C.

`Cc1c(N2C[C@H]3CCOC[C@@]3(N)C2)c(F)cc2c(=O)c(C(=O)O)cn([C@@H]3C[C@@H]3F)c12` registered a melting point of 158 to 160 °C. With `Cc1cc(C=NN2CCNC2=O)no1`, the melting point was 195 to 197 °C. The result for `Cc1onc(-c2ccccc2)c1C(=O)NCCCN1CCN(c2cc(Cl)ccc2O)CC1` reads 92 to 98 °C; that for `CCC(=O)/C=C/c1c([N+](=O)[O-])ccc2c1OC(COS(=O)(=O)c1ccc(C)cc1)CO2` (stereo not given), 114 °C; that for `CC(C)Cn1c(CNC(=O)OC(C)(C)C)c(-c2ccc(F)cc2)c2cc(OCC(N)=O)ccc2c1=O`, 218 to 219 °C. As to `COc1cc2cc(CO)c(CO)c(-c3ccnc(-n4c(=O)ccc5ccccc54)c3)c2cc1OC`, the melting point is above 230 °C. Then `CON=C(C)c1ccc2nnn(Cc3ccc4ncccc4c3)c2n1`, with 155 to 157 °C; and `CCOC(=O)c1cccc2c1N=C(c1ccccc1Cl)CC2=O`, with 152 to 153 °C. Turning to `O=C(Nc1cccc(Cl)c1C(=O)O)c1ccc(F)cc1`, the melting point was 228 to 233 °C. `COc1ccc(NS(=O)(=O)c2cc(OC)c(OC)c(OC)c2)cc1O` displayed a melting point of 145 to 146 °C. Take `CNc1ncnc(N2CCc3ccccc3CC2)c1[N+](=O)[O-]`: the melting point is 144 to 146 °C. With `O=C(CCc1ccccc1)N[C@H]1CC[C@H](c2ccc(O)cc2)CC1`, the melting point lay in the range of 201 to 206 °C.

As for `CC(=O)OC1CSC(Oc2cccc3cc(C(C)=O)oc23)C(OC(C)=O)C1OC(C)=O` (stereo not given), the melting point lay in the range of 208 to 209 °C. `COc1ccc(CBr)cc1S(=O)(=O)NC(C)(C)C` returned a melting point of 137 to 142 °C. Then `O=C(c1ccc2c(c1)OC(F)(F)C(=O)N2)N1CCOCC1`, with 214 to 217 °C. `COC(=O)c1nc(S(C)(=O)=O)ncc1Cl` showed a melting point of 96 °C. Turning to `N#CCCNC(=O)c1cccc(-c2cccc3cc(Cc4cccc(C(F)(F)F)c4)sc23)c1`, the melting point is 95 to 98 °C. Then `COc1cc(C(F)(F)F)cc(OC)c1C(=O)CCl`, with 120 to 122 °C; and `CC(C)=Cc1ccc(-c2ccc(C(CC3CCOCC3)c3ccc(S(=O)(=O)C4CC4)cc3)[nH]2)nc1` (stereo not given), with 114 to 116 °C. For `CCC1CC2C3CCC4=CC(=O)CCC4=C3C=CC2(CC)C1O` (stereo not given), the melting point is 184 to 187 °C.

The compound `COc1ccc([N+](=O)[O-])c2c1oc1ccccc12` had a melting point of 155 to 156 °C. Take `CC(C)=CC(=O)N1CCN(C(Cc2cccc(O)c2)c2ccccc2)CC1` (stereo not given): the melting point lay in the range of 186 to 187 °C. Consider `Cc1cccc(N2C(=O)C(=NO)c3ccccc32)c1C`, for which the melting point fell in the range of 215 to 216 °C.

`O=Cc1ccc(C(=O)O)c(SCc2ccccc2)c1` showed a melting point of 182 to 190 °C. `CN(C)C=C(C#N)C(=O)c1nccs1` registered a melting point of 126 °C. Then `CNC(=NOC)C1=Nc2ccc(Cl)cc2C(c2ccccc2F)=NC1`, with 140 to 142 °C; and `C#CCN(C(=O)OC(C)(C)C)C1CCc2ccc([N+](=O)[O-])cc21` (stereo not given), with 56 to 59 °C. Consider `O=C(NCCCn1ccnc1)c1ccccc1NS(=O)(=O)c1ccc(I)cc1`, for which the melting point lay within 162 to 166 °C. Then `COc1cc(/C=C/S(=O)(=O)CS(=O)(=O)/C=C/c2cc(OC)c(OC)c(OC)c2)cc(OC)c1OC`, with 127 to 129 °C. Then `CC(C)n1nc(-c2c(-c3ccccc3)nn3ccc(N4CCN(S(C)(=O)=O)CC4)cc23)ccc1=O`, with 219 to 220 °C. As for `N#Cc1ccc(-n2c(N)nc3ccccc32)cc1Cl`, the melting point was in the range of 245 to 248 °C. `CN(C)S(=O)(=O)n1c(C#N)nc2ccccc21` showed a melting point of 93 °C. `CCc1c(C(=O)O)nn(-c2ccc(Cl)cc2Cl)c1-c1ccc(Br)cc1` had a melting point of 218 °C. For `Oc1ccc(C2=C(c3ccc(OC4CCCCO4)cc3)CCCc3cc(OC4CCCCO4)ccc32)cc1` (stereo not given), the melting point lay within 182 to 183 °C. With `CC(C)OCc1nc2nccnc2c(=O)[nH]1`, the melting point was in the range of 198 to 199 °C. The result for `CC(=O)SCCNC(=O)CCNC(=O)OCc1ccccc1` reads 83 to 108 °C; that for `COc1cccc(-c2nc(N)c(C#N)nc2-c2ccc(=O)n(C(C)C)c2)c1`, 192 °C.

On to `Cc1c(C(=O)O)ccc2c1OCO2`, for which the melting point is 180 to 182 °C. Take `Nc1ccc(-c2coc3cc(O)c(O)cc3c2=O)cc1`: the melting point was 305 to 306 °C. Take `CCCCCCNC(=O)Nc1ccccc1C(=O)NC1CCN(C(c2ccccc2)c2ccccc2)CC1`: the melting point lay in the range of 192 to 194 °C. The result for `CCCCc1nc(SCC)c2ccccc2c1Cc1ccc(C(=O)OC)cc1` reads 70 °C.

For the compound `COc1cccc(Cc2cnc(N[N+](=O)[O-])[nH]c2=O)c1`, the melting point lay in the range of 178 to 179 °C. In the case of `Fc1ccc2c(c1)NCc1ccccc1O2`, the melting point came to 94 °C.

The compound `CCN(CC)C(=O)c1cccc(F)c1[Si](C)(C)C(C)(C)C` displayed a melting point of 50 to 51 °C.

In turn, `O=C(CCCCN1CCCCC1)c1ccc2c(c1)Cc1cc(C(=O)CCCCN3CCCCC3)ccc1O2` came in with a melting point of 129 to 130 °C. Compound `O=C(Nc1nccs1)c1ccc(-c2ccc3nnn(Cc4ccc5ncccc5c4)c3n2)cc1F` came in with a melting point of 204 to 206 °C. The result for `COc1cc2c(nc1OC)c(-c1cc3cc(F)cnc3[nH]1)cn2CCN1CCOCC1` reads 218 °C.

`O=C1COc2ccc3ccccc3c2N1` showed a melting point of 219 to 220 °C.

`CC(C)Cn1cccc1C(=O)C(C#N)C(=O)Nc1ccccc1` (stereo not given): the melting point lay in the range of 134 to 136 °C. In the case of `FC(F)(F)c1cccc2nc3c4ccccc4c4ccccc4c3nc12`, the melting point lay within 195 to 196 °C. Then `CCCCOC(=O)c1ccc(C(C(N)=O)C(C)c2ccccc2N2CCCCC2)cc1` (stereo not given), with 148 °C; and `COc1ccc(NC(=O)c2ccc(F)c(F)c2)cc1NS(=O)(=O)c1ccc([N+](=O)[O-])cc1`, with 231 to 249 °C.
